Experimental data: PMC5919439, “Isolation and molecular characterization of novel glucarpidases: Enzymes to improve the antibody directed enzyme pro-drug therapy for cancer treatment” (PLoS ONE, 2018)

Target: Ps CPG2 (Pseudomonas sp. RS-16, UniProt P06621)
Assay: decrease in absorbance at […] nm, plate reader, initial rates
Type: biochemical
Conditions: 0.1 M Tris-HCl pH 7.3, 0.2 mM ZnSO4, 37°C, 0.03-0.42 mM MTX; apparent Km

Ps CPG2, sequence (P06621 23-415): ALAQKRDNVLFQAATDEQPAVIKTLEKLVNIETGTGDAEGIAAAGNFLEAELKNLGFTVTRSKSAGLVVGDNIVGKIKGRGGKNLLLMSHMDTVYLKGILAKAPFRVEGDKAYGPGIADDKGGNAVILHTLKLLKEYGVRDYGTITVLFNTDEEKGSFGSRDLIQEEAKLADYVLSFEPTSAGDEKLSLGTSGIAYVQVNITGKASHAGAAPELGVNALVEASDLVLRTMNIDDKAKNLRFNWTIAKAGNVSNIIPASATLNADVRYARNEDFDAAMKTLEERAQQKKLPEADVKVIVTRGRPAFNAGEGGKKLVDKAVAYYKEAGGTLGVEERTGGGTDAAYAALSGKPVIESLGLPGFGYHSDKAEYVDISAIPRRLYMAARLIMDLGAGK

CN(Cc1cnc2nc(N)nc(N)c2n1)c1ccc(C(=O)N[C@@H](CCC(=O)O)C(=O)O)cc1 [methotrexate]
Km: 172 µM
